Source: the NIST ThermoML archive (doi:10.1016/j.jct.2016.10.016)

Assay: mn = molality of the nth substance listed, in mol/kg
Settings: 101.3 kPa, Liquid

O [water] + COC(=O)[C@@H](N)C(C)C.Cl
Settings	speed of sound [m/s]
278.15 K, Frequency=2 MHz, Linear variable-path acoustic interferometer, m2 = 0	1426.2

Settings	mass density [kg/m3]
278.15 K, Pycnometric method, m2 = 0	999.96

COC(=O)[C@@H](N)C(C)C.Cl [methyl L-valinate hydrochloride] + O
Settings	speed of sound [m/s]
278.15 K, Frequency=2 MHz, Linear variable-path acoustic interferometer, m1 = 0.0389	1431.7
278.15 K, Frequency=2 MHz, Linear variable-path acoustic interferometer, m1 = 0.0499	1433.3
278.15 K, Frequency=2 MHz, Linear variable-path acoustic interferometer, m1 = 0.0592	1434.2
278.15 K, Frequency=2 MHz, Linear variable-path acoustic interferometer, m1 = 0.0705	1436.3
278.15 K, Frequency=2 MHz, Linear variable-path acoustic interferometer, m1 = 0.0811	1437.4
278.15 K, Frequency=2 MHz, Linear variable-path acoustic interferometer, m1 = 0.0888	1438.7
278.15 K, Frequency=2 MHz, Linear variable-path acoustic interferometer, m1 = 0.1015	1441.1
278.15 K, Frequency=2 MHz, Linear variable-path acoustic interferometer, m1 = 0.1094	1441.3
278.15 K, Frequency=2 MHz, Linear variable-path acoustic interferometer, m1 = 0.1204	1443.8
278.15 K, Frequency=2 MHz, Linear variable-path acoustic interferometer, m1 = 0.1307	1445.3
278.15 K, Frequency=2 MHz, Linear variable-path acoustic interferometer, m1 = 0.1428	1446.5
278.15 K, Frequency=2 MHz, Linear variable-path acoustic interferometer, m1 = 0.1528	1448
288.15 K, Frequency=3 MHz, Sing-around technique in a fixed-path interferometer, m1 = 0.0507	1472.3
288.15 K, Frequency=3 MHz, Sing-around technique in a fixed-path interferometer, m1 = 0.0607	1473.5
288.15 K, Frequency=3 MHz, Sing-around technique in a fixed-path interferometer, m1 = 0.0699	1474.5
288.15 K, Frequency=3 MHz, Sing-around technique in a fixed-path interferometer, m1 = 0.0798	1475.7
288.15 K, Frequency=3 MHz, Sing-around technique in a fixed-path interferometer, m1 = 0.09	1476.9
288.15 K, Frequency=3 MHz, Sing-around technique in a fixed-path interferometer, m1 = 0.0999	1478.3
288.15 K, Frequency=3 MHz, Sing-around technique in a fixed-path interferometer, m1 = 0.1099	1479.2
288.15 K, Frequency=3 MHz, Sing-around technique in a fixed-path interferometer, m1 = 0.1201	1480.4
288.15 K, Frequency=3 MHz, Sing-around technique in a fixed-path interferometer, m1 = 0.1295	1481.6
288.15 K, Frequency=3 MHz, Sing-around technique in a fixed-path interferometer, m1 = 0.1399	1482.8
288.15 K, Frequency=3 MHz, Sing-around technique in a fixed-path interferometer, m1 = 0.1497	1484.3
288.15 K, Frequency=3 MHz, Sing-around technique in a fixed-path interferometer, m1 = 0.16	1485.9
298.15 K, Frequency=3 MHz, Sing-around technique in a fixed-path interferometer, m1 = 0.0405	1501.4
298.15 K, Frequency=3 MHz, Sing-around technique in a fixed-path interferometer, m1 = 0.0504	1502.5
298.15 K, Frequency=3 MHz, Sing-around technique in a fixed-path interferometer, m1 = 0.06	1503.7
298.15 K, Frequency=3 MHz, Sing-around technique in a fixed-path interferometer, m1 = 0.0703	1504.9
298.15 K, Frequency=3 MHz, Sing-around technique in a fixed-path interferometer, m1 = 0.0804	1505.9
298.15 K, Frequency=3 MHz, Sing-around technique in a fixed-path interferometer, m1 = 0.0903	1507.1
298.15 K, Frequency=3 MHz, Sing-around technique in a fixed-path interferometer, m1 = 0.1001	1508.1
298.15 K, Frequency=3 MHz, Sing-around technique in a fixed-path interferometer, m1 = 0.1103	1509.6
298.15 K, Frequency=3 MHz, Sing-around technique in a fixed-path interferometer, m1 = 0.12	1510.3
298.15 K, Frequency=3 MHz, Sing-around technique in a fixed-path interferometer, m1 = 0.1305	1511.4
298.15 K, Frequency=3 MHz, Sing-around technique in a fixed-path interferometer, m1 = 0.1401	1513
298.15 K, Frequency=3 MHz, Sing-around technique in a fixed-path interferometer, m1 = 0.1514	1513.8

Settings	mass density [kg/m3]
278.15 K, Pycnometric method, m1 = 0.0389	1001.17
278.15 K, Pycnometric method, m1 = 0.0499	1001.51
278.15 K, Pycnometric method, m1 = 0.0592	1001.8
278.15 K, Pycnometric method, m1 = 0.0705	1002.15
278.15 K, Pycnometric method, m1 = 0.0811	1002.48
278.15 K, Pycnometric method, m1 = 0.0888	1002.72
278.15 K, Pycnometric method, m1 = 0.1015	1003.1
278.15 K, Pycnometric method, m1 = 0.1094	1003.35
278.15 K, Pycnometric method, m1 = 0.1204	1003.7
278.15 K, Pycnometric method, m1 = 0.1307	1004
278.15 K, Pycnometric method, m1 = 0.1428	1004.38
278.15 K, Pycnometric method, m1 = 0.1528	1004.7
288.15 K, Vibrating tube method, m1 = 0.0507	1000.66
288.15 K, Vibrating tube method, m1 = 0.0607	1000.96
288.15 K, Vibrating tube method, m1 = 0.0699	1001.25
288.15 K, Vibrating tube method, m1 = 0.0798	1001.55
288.15 K, Vibrating tube method, m1 = 0.09	1001.87
288.15 K, Vibrating tube method, m1 = 0.0999	1002.17
288.15 K, Vibrating tube method, m1 = 0.1099	1002.46
288.15 K, Vibrating tube method, m1 = 0.1201	1002.78
288.15 K, Vibrating tube method, m1 = 0.1295	1003.07
288.15 K, Vibrating tube method, m1 = 0.1399	1003.4
288.15 K, Vibrating tube method, m1 = 0.1497	1003.7
288.15 K, Vibrating tube method, m1 = 0.16	1004
298.15 K, Vibrating tube method, m1 = 0.0405	998.23
298.15 K, Vibrating tube method, m1 = 0.0504	998.52
298.15 K, Vibrating tube method, m1 = 0.06	998.78
298.15 K, Vibrating tube method, m1 = 0.0703	999.08
298.15 K, Vibrating tube method, m1 = 0.0804	999.37
298.15 K, Vibrating tube method, m1 = 0.0903	999.66
298.15 K, Vibrating tube method, m1 = 0.1001	999.92
298.15 K, Vibrating tube method, m1 = 0.1103	1000.24
298.15 K, Vibrating tube method, m1 = 0.12	1000.51
298.15 K, Vibrating tube method, m1 = 0.1305	1000.78
298.15 K, Vibrating tube method, m1 = 0.1401	1001.06
298.15 K, Vibrating tube method, m1 = 0.1514	1001.39
